These results are taken from patent US20230365563A1, “QUINAZOLINE COMPOUND AND APPLICATION THEREOF” (SHANGHAI PHARMACEUTICALS HOLDING CO., LTD., priority 2020, published 2023).

Each structure is given as a SMILES string. Where a name gives a salt, the structure may show the parent alone.

The target of one assay is T1, KRAS_G12D and cRAF (Homo sapiens, UniProt P01116, G12D).
T1 construct: purchased
Nature of the assay: Inhibition of KRAS_G12D/cRAF binding (Cisbio binding kit, 665/615 ratio), Effect Embodiment B. Conditions: read-out: GTP-KRAS-G12D:CRAF IC50. In outline: (§1)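 Duplicate wells received an eleven-point, threefold compound titration whose top point was the stock solution; final DMSO 1%.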

A further assay has as its target T2, KRAS-G12D and SOS1 (Homo sapiens, UniProt P01116, G12D).
T2 construct: purchased
Nature of the assay: Inhibition of KRAS-G12D/SOS1 binding (Cisbio binding kit, 665/615 ratio), Effect Embodiment A. As to conditions: read-out: GTP-KRAS-G12D:SOS1 IC50. A digest of the protocol: as §1

In another assay the target is T3, KRAS_WT and SOS1 (Homo sapiens, UniProt P01116).
T3 construct: purchased
As to the kind of experiment: Inhibition of KRAS_WT/SOS1 binding (Cisbio binding kit, 665/615 ratio), Effect Embodiment C. As to conditions: read-out: GTP-KRAS-WT:SOS1 IC50. In outline:
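Compounds tested as 3-fold, 11-point dilutions in duplicate at 1% DMSO final against the KRAS_WT/SOS1 binding system. IC50 derived by nonlinear regression fit.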

T3 sequence (P01116 1-188 isoform P01116-2): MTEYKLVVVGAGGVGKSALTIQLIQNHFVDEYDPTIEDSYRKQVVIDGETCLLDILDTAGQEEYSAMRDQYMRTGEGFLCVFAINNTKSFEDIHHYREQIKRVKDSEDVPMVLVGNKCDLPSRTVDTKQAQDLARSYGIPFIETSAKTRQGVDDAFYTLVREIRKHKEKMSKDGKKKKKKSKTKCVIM
T1 sequence (P01116 1-188 isoform P01116-2 G12D): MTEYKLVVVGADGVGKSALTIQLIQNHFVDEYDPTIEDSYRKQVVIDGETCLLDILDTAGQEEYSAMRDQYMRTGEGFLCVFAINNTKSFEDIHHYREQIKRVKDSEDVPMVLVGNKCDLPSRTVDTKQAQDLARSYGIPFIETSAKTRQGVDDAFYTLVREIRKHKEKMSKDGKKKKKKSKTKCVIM
T2 sequence (P01116 1-188 isoform P01116-2 G12D): as above

Consider `Oc1cc(-c2c(Cl)cc3c(N4CC5CCC(C4)N5)nc(OCCCN4CC5(COC5)C4)nc3c2F)c2ccccc2c1` (single isomer, unassigned) [Compound 245, 4-((S or R)-2-(3-(2-oxa-6-azaspiro[3.3]heptan-6-yl)propoxy)-4-((1R,5S)-3,8-diazacyclo[3.2.1]octan-3-yl)-6-chloro-8-fluoroquinazolin-7-yl)naphthalen-2-ol diformate], for which the half-inhibitory concentration (IC50) (commonly the concentration needed to halve the response being measured) at KRAS_G12D and cRAF was determined as 110 nM; at KRAS-G12D and SOS1, 27.4 nM; at KRAS_WT and SOS1, 1480 nM.
Taken in the same sequence, the figures for `Oc1cc(-c2c(Cl)cc3c(N4CC5CCC(C4)N5)nc(OCCCN4CCOC5(CC5)C4)nc3c2F)c2ccccc2c1` (single isomer, unassigned) [Compound 240, 4-((S or R)-2-(3-(4-oxa-7-azaspiro[2.5]octan-7-yl)propoxy)-4-((1R,5S)-3,8-diazacyclo[3.2.1]octan-3-yl)-6-chloro-8-fluoroquinazolin-7-yl)naphthalen-2-ol formate] were 164 nM, 39.1 nM and 2210 nM.
On to `Oc1cc(-c2c(Cl)cc3c(N4CC5CCC(C4)N5)nc(OCCCN4CCC5(CCOCC5)C4)nc3c2F)c2ccccc2c1` (single isomer, unassigned) [Compound 259, 4-((S or R)-2-(3-(8-oxa-2-azaspiro[4.5]decan-2-yl)propoxy)-4-((1R,5S)-3,8-diazacyclo[3.2.1]octan-3-yl)-6-chloro-8-fluoroquinazolin-7-yl)naphthalen-2-ol formate], for which the half-inhibitory concentration (IC50) was determined as 146 nM on KRAS_G12D and cRAF; 25.3 nM on KRAS-G12D and SOS1; 1470 nM on KRAS_WT and SOS1.
On the same counts, the results for `CN1CC2(CC2)C[C@H]1COc1nc(N2CC3CCC(C2)N3)c2cnc(-c3cc(O)cc4ccccc34)c(F)c2n1` [Compound 137, 4-(4-((1R,5S)-3,8-diazabicyclo[3.2.1]octan-3-yl)-8-fluoro-2-((S)-5-methyl-5-azaspiro[2.4]heptan-6-yl)methoxy)pyridin[4,3-d]pyrimidin-7-yl)naphthalen-2-ol diformate] are 10.7 nM, 13.3 nM and 123 nM.
Taken in the same sequence, the figures for `CN(C)C1CCC(Oc2nc(N3CC4CCC(C3)N4)c3cc(Cl)c(-c4cc(O)cc5ccccc45)c(F)c3n2)C1` (single isomer, unassigned) [Compound 70a, 4-((S or R)-4-((1R,5S)-3,8-diazabicyclo[3.2.1]octan-3-yl)-6-chloro-2-((1S,3R or 1R,3S)-3-(dimethylamino)cyclopentyl)oxy)-8-fluoroquinazolin-7-yl)naphthalen-2-ol dihydrochloride] were 592 nM, 93.9 nM and more than 100000 nM.
On the same counts, the results for `CCN(CC)CCCOc1nc(N2CC3CCC(C2)N3)c2cc(Cl)c(-c3cc(O)cc4ccccc34)c(F)c2n1` (single isomer, unassigned) [Compound 53a, 4-((S or R)-4-((1R,5S)-3,8-diazabicyclo[3.2.1]octan-3-yl)-6-chloro-2-(3-(diethylamino)propoxy)-8-fluoroquinazolin-7-yl)naphthalen-2-ol] are 147 nM, 59.7 nM and 2170 nM.
`CO[C@@H]1C[C@H]2CC[C@@H](C1)N2C[C@@H](C)COc1nc(N2CC3CCC(C2)N3)c2cc(Cl)c(-c3cc(O)cc4ccccc34)c(F)c2n1` (single isomer, unassigned) [Compound 224, 4-((S or R)-4-((1R,5S)-3,8-diazabicyclo[3.2.1]octan-3-yl)-6-chloro-8-fluoro-2-((R)-3-((1R,3S,5S)-3-methoxy-8-azabicyclo[3.2.1]octan-8-yl)-2-methylpropoxy)quinazolin-7-yl)naphthalen-2-ol diformate]: the IC50 was determined as 18.6 nM on KRAS_G12D and cRAF; 13.2 nM at KRAS-G12D and SOS1; 1350 nM on KRAS_WT and SOS1.
Taken in the same sequence, the figures for `CCc1c(F)ccc2cc(O)cc(-c3c(Cl)cc4c(N5CC6CCC(C5)N6)nc(OCCCN5C6CCC5COC6)nc4c3F)c12` (single isomer, unassigned) [compound 251] were 67.6 nM, 27.6 nM and 257 nM.
Take `Oc1cc(-c2c(Cl)cc3c(N4CC5CCC(C4)N5)nc(OC[C@@H]4CCCN4C4CC4)nc3c2F)c2ccccc2c1` (single isomer, unassigned) [Compound 163, 4-((R or S)-4-((1R,5S)-3,8-diazabicyclo[3.2.1]octan-3-yl)-6-chloro-2-((S)-1-cyclopropylpyrrolidin-2-yl)methoxy)-8-fluoroquinazolin-7-yl)naphthalen-2-ol dihydrochloride]: the IC50 at KRAS_G12D and cRAF is 49.8 nM; on KRAS-G12D and SOS1, 18.6 nM; on KRAS_WT and SOS1, 787 nM.
Taken in the same sequence, the figures for `CCCN(C)CCCOc1nc(N2CC3CCC(C2)N3)c2cc(Cl)c(-c3cc(O)cc4ccccc34)c(F)c2n1` (single isomer, unassigned) [Compound 51a, 4-((S or R)-4-((1R,5S)-3,8-diazabicyclo[3.2.1]octan-3-yl)-6-chloro-8-fluoro-2-(3-(methyl(propyl)amino)propoxy)quinazolin-7-yl)naphthalen-2-ol carboxylate] were 144 nM, 30.8 nM and 1420 nM.
With `CCCCN(C)CCCOc1nc(N2CC3CCC(C2)N3)c2cc(Cl)c(-c3cc(O)cc4ccccc34)c(F)c2n1` (single isomer, unassigned) [Compound 113, 4-((S or R)-4-((1R,5S)-3,8-diazabicyclo[3.2.1]octan-3-yl)-2-(3-(butyl(methyl)amino)propoxy)-6-chloro-8-fluoroquinazolin-7-yl)naphthalen-2-ol hydrochloride], the IC50 on KRAS_G12D and cRAF came to 130 nM; on KRAS-G12D and SOS1, 51.8 nM; at KRAS_WT and SOS1, 4000 nM.
On the same counts, the results for `CC(C)(COc1nc(N2CC3CCC(C2)N3)c2cc(Cl)c(-c3cc(O)cc4ccccc34)c(F)c2n1)CN1C2CCC1COC2` (single isomer, unassigned) [Compound 120, 4-((7S or R)-2-(3-(3-oxa-8-azabicyclo[3.2.1]octan-8-yl)-2,2-dimethylpropoxy)-4-((1R,5S)-3,8-diazabicyclo[3.2.1]octan-3-yl)-6-chloro-8-fluoroquinazolin-7-yl)naphthalen-2-ol dihydrochloride] are 72.7 nM, 36.5 nM and 2670 nM.
Turning to `C[C@@H](COc1nc(N2CC3CCC(C2)N3)c2cc(Cl)c(-c3cc(O)cc4ccccc34)c(F)c2n1)CN1C[C@@H](C)O[C@@H](C)C1` (single isomer, unassigned) [Compound 205, 4-((S or R)-4-((1R,5S)-3,8-diazabicyclo[3.2.1]octan-3-yl)-6-chloro-2-((R)-3-((2S,6R)-2,6-dimethylmorpholinyl)-2-methylpropoxy)-8-fluoroquinazolin-7-yl)naphthalenol formate], the IC50 was found to be 13 nM at KRAS_G12D and cRAF; 11.6 nM on KRAS-G12D and SOS1; 505 nM on KRAS_WT and SOS1.
On the same counts, the results for `C[C@@H](COc1nc(N2CC3CCC(C2)N3)c2cc(Cl)c(-c3cc(O)cc4ccccc34)c(F)c2n1)CN1CCO[C@@H](C)C1` (single isomer, unassigned) [Compound 247, 4-((S or R)-4-((1R,5S)-3,8-diazacyclo[3.2.1]octan-3-yl)-6-chloro-8-fluoro-2-((R)-2-methyl-3-((S)-2-methylmorpholinyl)propoxy)quinazolin-7-yl)naphthalen-2-ol formate] are 28.5 nM, 13.3 nM and 944 nM.
Taken in the same sequence, the figures for `CN(C)C(C)(C)COc1nc(N2CC3CCC(C2)N3)c2cc(Cl)c(-c3cc(O)cc4ccccc34)c(F)c2n1` (single isomer, unassigned) [Compound 104, 4-((S or R)-4-((1R,5S)-3,8-diazabicyclo[3.2.1]octan-3-yl)-6-chloro-2-(2-(dimethylamino)-2-methylpropoxy)-8-fluoroquinazolin-7-yl)naphthalen-2-ol dihydrochloride] were 248 nM, 40.9 nM and more than 10000 nM.
On to `CC1OCCN(CCCOc2nc(N3CC4CCC(C3)N4)c3cc(Cl)c(-c4cc(O)cc5ccccc45)c(F)c3n2)C1C` (single isomer, unassigned) [Compound 265d, 4-((R or S)-4-((1R,5S)-3,8-diazabicyclo[3.2.1]octan-3-yl)-6-chloro-2-(3-(2R or 2S, 3R or 3S)-2,3-dimethylmorpholinyl)propoxy)-8-fluoroquinazolin-7-yl)naphthalen-2-ol diformate], for which the IC50 at KRAS_G12D and cRAF was 184 nM; on KRAS-G12D and SOS1 it was 50 nM; on KRAS_WT and SOS1 it was 4900 nM.
For `CC1OCCN(CCCOc2nc(N3CC4CCC(C3)N4)c3cc(Cl)c(-c4cc(O)cc5ccccc45)c(F)c3n2)C1C` (single isomer, unassigned) [Compound 265c, 4-((R or S)-4-((1R,5S)-3,8-diazabicyclo[3.2.1]octan-3-yl)-6-chloro-2-(3-((2S or 2R, 3S or 3R)-(2,3-dimethylmorpholinyl)propoxy)-8-fluoroquinazolin-7-yl)naphthalen-2-ol diformate], the IC50 on KRAS_G12D and cRAF was 135 nM; at KRAS-G12D and SOS1 it was 49.8 nM; at KRAS_WT and SOS1, 1280 nM.
On the same counts, the results for `CN(C)C1CN(c2nc(N3CC4CCCC3CN4)c3cc(Cl)c(-c4cc(O)cc5ccccc45)c(F)c3n2)C1` (single isomer, unassigned) [Compound 37, 4-((S or R)-4-((1S,5S or 1R,5R)-6,8-diazabicyclo[3.2.2]nonan-6-yl)-6-chloro-2-(3-(dimethylamino)azetidin-1-yl)-8-fluoroquinazolin-7-yl)naphthalen-2-ol] are 2140 nM, 629 nM and 1010 nM.
